Key:
MDA-MB-231 cells = assay: Cell proliferation assay (CellTiter-Glo), MDA-MB-231; assay type: cell-based; conditions: Homo sapiens, MDA-MB-231, 72 h, 72 h treatment, Celltiter-Glo luminescence
Outline: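 Compounds tested over ten concentrations ([…]) for 72 h on EVSA-T cells in MEM/10% FBS and MDA-MB-231 cells in RPMI-1640/10% FBS, seeded at 10000/well. Luminescent CellTiter-Glo readout; IC50 fitted after normalisation to controls.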

EVSA-T cells = assay: Cell proliferation assay (CellTiter-Glo), EVSA-T; assay type: cell-based; conditions: Homo sapiens, EVSA-T, 72 h, 72 h treatment, Celltiter-Glo luminescence
Description: Example 238: Cell Proliferation Assay
MDA-MB-231 and EVSA-T cells (10000 cells/well) were plated onto 96-well plates (Corning, Cat #3917) in 95 μL of medium (RPMI-1640 containing 10% FBS and MEM containing 10% FBS, respectively). Compounds with various concentrations ([…]) were added to the wells. After treatment for 72 h, 30 μL of Celltiter-Glo reagent (Promega, Cat #G7573) was added and incubated at room temperature for 15 min, then the luminescent signal was determined using a microplate reader (Biotek, SynergyH1). The inhibitor dose-response curves were analyzed using normalized IC50 regression curve fitting with control based normalization.

IC50 (MDA-MB-231 cells) [nM] | SMILES | IC50 (EVSA-T cells) [nM]
4 | C[C@@H]1CN(CC(=O)N2CC(C)(C)c3c2cc(Cc2ccc(F)cc2)c2nn(Cc4ccncn4)c(=O)n32)[C@@H](CN2CCOC[C@H]2C)CN1 [Compound 246, 4-(4-fluorobenzyl)-8,8-dimethyl-6-(2-((2R,5R)-5-methyl-2-(((R)-3-methylmorpholino)methyl)piperazin-1-yl)acetyl)-2-(pyrimidin-4-ylmethyl)-2,6,7,8-tetrahydro-1H-pyrrolo[2,3-e][1,2,4]triazolo[4,3-a]pyridin-1-one] | 3.5
42 | C[C@@H]1CN(CC(=O)N2CC(C)(C)c3c2cc(Cc2ccc(F)cc2)c2ncnn32)[C@@H](CN2CCOC[C@H]2C)CN1 [Example 14, 1-(4-(4-fluorobenzyl)-8,8-dimethyl-7,8-dihydro-6H-pyrrolo[2,3-e][1,2,4]triazolo[1,5-a]pyridin-6-yl)-2-((2R,5R)-5-methyl-2-(((R)-3-methylmorpholino)methyl)piperazin-1-yl)ethan-1-one] | 6
82 | COCCn1nc2c(Cc3ccc(F)cc3)cc3c(n2c1=O)C(C)(C)CN3C(=O)CN1C[C@@H](C)NC[C@@H]1CN1CCOC[C@H]1C [Compound 227, 4-(4-fluorobenzyl)-2-(2-methoxyethyl)-8,8-dimethyl-6-(2-((2R,5R)-5-methyl-2-(((R)-3-methylmorpholino)methyl)piperazin-1-yl)acetyl)-2,6,7,8-tetrahydro-1H-pyrrolo[2,3-e][1,2,4]triazolo[4,3-a]pyridin-1-one] | 2
41 | C[C@@H]1CN(CC(=O)N2CC(C)(C)c3c2cc(Cc2ccc(F)cc2)c2nc(CN(C)C)nn32)[C@@H](CN2CCOC[C@H]2C)CN1 [Compound 212, 1-(2-((dimethylamino)methyl)-4-(4-fluorobenzyl)-8,8-dimethyl-7,8-dihydro-6H-pyrrolo[2,3-e][1,2,4]triazolo[1,5-a]pyridin-6-yl)-2-((2R,5R)-5-methyl-2-(((R)-3-methylmorpholino)methyl)piperazin-1-yl)ethan-1-one] | 7
51 | C[C@@H]1CN(CC(=O)N2CC(C)(C)c3c2cc(Cc2ccc(F)cc2)c2nn(CC(O)C4CC4)c(=O)n32)[C@@H](CN2CCOC[C@H]2C)CN1 (stereo partly drawn) [Compound 270, 2-(2-cyclopropyl-2-hydroxyethyl)-4-(4-fluorobenzyl)-8,8-dimethyl-6-(2-((2R,5R)-5-methyl-2-(((R)-3-methylmorpholino)methyl)piperazin-1-yl)acetyl)-2,6,7,8-tetrahydro-1H-pyrrolo[2,3-e][1,2,4]triazolo[4,3-a]pyridin-1-one] | 11.5
120 | CC(=O)c1nc2c(Cc3ccc(F)cc3)cc3c(n2n1)C(C)(C)CN3C(=O)CN1C[C@@H](C)NC[C@@H]1CN1CCOC[C@H]1C [Compound 224, 1-(2-acetyl-4-(4-fluorobenzyl)-8,8-dimethyl-7,8-dihydro-6H-pyrrolo[2,3-e][1,2,4]triazolo[1,5-a]pyridin-6-yl)-2-((2R,5R)-5-methyl-2-(((R)-3-methylmorpholino)methyl)piperazin-1-yl)ethan-1-one] | 2
40 | C[C@@H]1CN(CC(=O)N2CC(C)(C)c3c2cc(Cc2ccc(F)cc2)c2nn(C)c(=O)n32)[C@@H](CN2CCOC[C@H]2C)CN1 [Compound 135, 4-(4-fluorobenzyl)-2,8,8-trimethyl-6-(2-((2R,5R)-5-methyl-2-(((R)-3-methylmorpholino)methyl)piperazin-1-yl)acetyl)-2,6,7,8-tetrahydro-1H-pyrrolo[2,3-e][1,2,4]triazolo[4,3-a]pyridin-1-one] | 4
47 | C[C@@H]1CN(CC(=O)N2CC(C)(C)c3c2cc(Cc2ccc(F)cc2)c2ncnn32)[C@@H](CN2Cc3ccncc3C2=O)CN1 [Compound 97, 2-(((2R,5R)-1-(2-(4-(4-fluorobenzyl)-8,8-dimethyl-7,8-dihydro-6H-pyrrolo[2,3-e][1,2,4]triazolo[1,5-a]pyridin-6-yl)-2-oxoethyl)-5-methylpiperazin-2-yl)methyl)-1,2-dihydro-3H-pyrrolo[3,4-c]pyridin-3-one] | 3
61 | Cc1nc2c(Cc3ccc(F)cc3)cc3c(n2c1C)C(C)(C)CN3C(=O)CN1C[C@@H](C)NC[C@@H]1CN1CCOC[C@H]1C [Compound 109, 1-(4-(4-fluorobenzyl)-1,2,8,8-tetramethyl-7,8-dihydro-6H-imidazo[1,2-a]pyrrolo[2,3-e]pyridin-6-yl)-2-((2R,5R)-5-methyl-2-(((R)-3-methylmorpholino)methyl)piperazin-1-yl)ethan-1-one] | 9
230 | Cc1nc(C#N)c2c(Cc3ccc(F)cc3)cc3c(n12)C(C)(C)CN3C(=O)CN1C[C@@H](C)NC[C@@H]1CN1CCOC[C@H]1C [Compound 130, 4-(4-fluorobenzyl)-1,8,8-trimethyl-6-(2-((2R,5R)-5-methyl-2-(((R)-3-methylmorpholino)methyl)piperazin-1-yl)acetyl)-7,8-dihydro-6H-imidazo[1,5-a]pyrrolo[2,3-e]pyridine-3-carbonitrile] | 37
12 | C[C@@H]1CN(CC(=O)N2CC(C)(C)c3c2cc(Cc2ccc(F)cc2)c2ncnn32)[C@@H](CN2Cc3c(F)cccc3C2=O)CN1 [Compound 99, 4-fluoro-2-(((2R,5R)-1-(2-(4-(4-fluorobenzyl)-8,8-dimethyl-7,8-dihydro-6H-pyrrolo[2,3-e][1,2,4]triazolo[1,5-a]pyridin-6-yl)-2-oxoethyl)-5-methylpiperazin-2-yl)methyl)isoindolin-1-one] | 5
75 | C[C@@H]1CN(CC(=O)N2CC(C)(C)c3c2cc(Cc2ccc(Cl)cc2)c2ncnn32)[C@@H](CN2CCOC[C@H]2C)CN1 [Compound 44, 1-(4-(4-chlorobenzyl)-8,8-dimethyl-7,8-dihydro-6H-pyrrolo[2,3-e][1,2,4]triazolo[1,5-a]pyridin-6-yl)-2-((2R,5R)-5-methyl-2-(((R)-3-methylmorpholino)methyl)piperazin-1-yl)ethan-1-one] | 9
76 | C[C@@H]1CN(CC(=O)N2CC(C)(C)c3c2cc(Cc2ccc(F)cc2)c2nc(N4C[C@@H](O)[C@@H](O)C4)nn32)[C@@H](CN2CCOC[C@H]2C)CN1 [Compound 229, 1-(2-((3R,4S)-3,4-dihydroxypyrrolidin-1-yl)-4-(4-fluorobenzyl)-8,8-dimethyl-7,8-dihydro-6H-pyrrolo[2,3-e][1,2,4]triazolo[1,5-a]pyridin-6-yl)-2-((2R,5R)-5-methyl-2-(((R)-3-methylmorpholino)methyl)piperazin-1-yl)ethan-1-one] | 7
10 | COC(=O)Nc1nc2c(Cc3ccc(F)cc3)cc3c(n2n1)C(C)(C)CN3C(=O)CN1C[C@@H](C)NC[C@@H]1CN1CCOC[C@H]1C [Compound 234, methyl (4-(4-fluorobenzyl)-8,8-dimethyl-6-(2-((2R,5R)-5-methyl-2-(((R)-3-methylmorpholino)methyl)piperazin-1-yl)acetyl)-7,8-dihydro-6H-pyrrolo[2,3-e][1,2,4]triazolo[1,5-a]pyridin-2-yl)carbamate] | 0.7
46 | C[C@@H]1CN(CC(=O)N2CC(C)(C)c3c2cc(Cc2ccc(F)cc2)c2nn(C[C@H]4COCCO4)c(=O)n32)[C@@H](CN2CCOC[C@H]2C)CN1 [Compound 237, 2-(((S)-1,4-dioxan-2-yl)methyl)-4-(4-fluorobenzyl)-8,8-dim ethyl-6-(2-((2R,5R)-5-methyl-2-(((R)-3-methylmorpholino)methyl)piperazin-1-yl)acetyl)-2,6,7,8-tetrahydro-1H-pyrrolo[2,3-e][1,2,4]triazolo[4,3-a]pyridin-1-one] | 1.5
17 | COCC(COC)n1nc2c(Cc3ccc(F)cc3)cc3c(n2c1=O)C(C)(C)CN3C(=O)CN1C[C@@H](C)NC[C@@H]1CN1CCOC[C@H]1C [Compound 261, 2-(1,3-dimethoxypropan-2-yl)-4-(4-fluorobenzyl)-8,8-dimethyl-6-(2-((2R,5R)-5-methyl-2-(((R)-3-methylmorpholino)methyl)piperazin-1-yl)acetyl)-2,6,7,8-tetrahydro-1H-pyrrolo[2,3-e][1,2,4]triazolo[4,3-a]pyridin-1-one] | 3.2
70 | CC(C)NC(=O)c1nc2c(Cc3ccc(F)cc3)cc3c(n2n1)C(C)(C)CN3C(=O)CN1C[C@@H](C)NC[C@@H]1CN1CCOC[C@H]1C [Compound 256, 4-(4-fluorobenzyl)-N-isopropyl-8,8-dimethyl-6-(2-((2R,5R)-5-methyl-2-(((R)-3-methylmorpholino)methyl)piperazin-1-yl)acetyl)-7,8-dihydro-6H-pyrrolo[2,3-e][1,2,4]triazolo[1,5-a]pyridine-2-carboxamide] | 8.9
350 | Cc1nnc2c(Cc3ccc(F)cc3)cc3c(n12)C(C)(C)CN3C(=O)CN1C[C@@H](C)NC[C@@H]1CN1CCOC[C@H]1C [Example 10, 1-(4-(4-fluorobenzyl)-1,8,8-trimethyl-7,8-dihydro-6H-pyrrolo[2,3-e][1,2,4]triazolo[4,3-a]pyridin-6-yl)-2-((2R,5R)-5-methyl-2-(((R)-3-methylmorpholino)methyl)piperazin-1-yl)ethan-1-one] | 27

Reference: patent US20250179073A1, “TRICYCLIC HETEROCYCLE COMPOUNDS AS IAP ANTAGONISTS” (Ascentage Pharma (Suzhou) Co., Ltd., priority 2022, published 2025)
